According to ChEMBL document CHEMBL1201862, “PubChem BioAssay data set” (2004):
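Growth conditions: 96-well plates. Treatment: test compound, 48 hours, 5 concentrations. Analysis: linear interpolation between bracketing concentrations; unreached endpoints set to highest concentration. GI50 is the concentration that inhibits growth by half.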 Calls of active or inactive are those of the source. No stated cut-off is given here; in the data, active = GI50 up to about 1.1 µM and inactive = higher.

How the values were obtained:
Assay in all cases: inhibition of tumour cell growth, NCI panel, 48 h
A549 = tested on: A549
HCT-15 = tested on: HCT-15
HL-60 = tested on: HL-60
HOP-62 = tested on: HOP-62
Hs-578T = tested on: Hs-578T
MDA-N = tested on: MDA-N
Malme-3M = tested on: Malme-3M
NCI-H23 = tested on: NCI-H23
OVCAR-3 = tested on: OVCAR-3
SF-268 = tested on: SF-268
SK-MEL-2 = tested on: SK-MEL-2
SN12C = tested on: SN12C
T47D = tested on: T47D
TK-10 = tested on: TK-10
UACC-62 = tested on: UACC-62
UO-31 = tested on: UO-31
CCRF-CEM = tested on: CCRF-CEM
COLO 205 = tested on: COLO 205
SF-539 = tested on: SF-539
NCI-H226 = tested on: NCI-H226

SMILES | GI50 (A549) | GI50 (HCT-15) | GI50 (HL-60) | GI50 (HOP-62) | GI50 (Hs-578T) | GI50 (MDA-N) | GI50 (Malme-3M) | GI50 (NCI-H23) | GI50 (OVCAR-3) | GI50 (SF-268) | GI50 (SK-MEL-2) | GI50 (SN12C) | GI50 (T47D) | GI50 (TK-10) | GI50 (UACC-62) | GI50 (UO-31) | GI50 (CCRF-CEM) | GI50 (COLO 205) | GI50 (SF-539) | GI50 (NCI-H226)
O=C(O)CSc1ccc([N+](=O)[O-])cc1[N+](=O)[O-] | > 100 µM (inactive) | > 100 µM | > 100 µM (inactive) | > 100 µM (inactive) | > 100 µM (inactive) | > 100 µM (inactive) | > 100 µM (inactive) | > 100 µM (inactive) | > 100 µM (inactive) | > 100 µM (inactive) | > 100 µM (inactive) | > 100 µM (inactive) | > 100 µM (inactive) | > 100 µM (inactive) | > 100 µM (inactive) | > 100 µM (inactive) | – | – | – | –
C[C@]1(O)CC[C@H]2[C@@H]3CCc4cc(O)ccc4[C@H]3CC[C@@]21C | 3.94 µM (inactive) | 1.15 µM | 0.362 µM (active) | – | 1.19 µM (inactive) | 0.186 µM (active) | 0.353 µM (active) | 3.03 µM (inactive) | – | 3.46 µM (inactive) | 0.773 µM (active) | – | 38.5 µM (inactive) | 0.826 µM (active) | – | 8.32 µM (inactive) | 2.37 µM (inactive) | 7.35 µM (inactive) | 0.356 µM (active) | –
COC(=O)C1=C(C(=O)OC)SC2(S1)C1=C(CCCC1)SC(C(=O)OC)=C2C(=O)OC | 14.6 µM (inactive) | 4.39 µM | 2.91 µM (inactive) | 5.62 µM (inactive) | 15.9 µM (inactive) | 3.9 µM (inactive) | 11.4 µM (inactive) | 15.8 µM (inactive) | 6.89 µM (inactive) | 9.71 µM (inactive) | 15.5 µM (inactive) | 2.76 µM (inactive) | 2.54 µM (inactive) | 10.9 µM (inactive) | 12.7 µM (inactive) | 4.58 µM (inactive) | 1.7 µM (inactive) | 9.25 µM (inactive) | 1.51 µM (inactive) | –
CCn1c(=O)c2c3ccc(O)cc3[nH]c2c2ccc(O)cc21 | > 100 µM (inactive) | > 100 µM | – | > 100 µM (inactive) | 44.1 µM (inactive) | 66.4 µM (inactive) | 95.9 µM (inactive) | > 100 µM (inactive) | > 100 µM (inactive) | > 100 µM (inactive) | – | 81.5 µM (inactive) | 51.2 µM (inactive) | > 100 µM (inactive) | 57 µM (inactive) | > 100 µM (inactive) | 55.8 µM (inactive) | > 100 µM (inactive) | > 100 µM (inactive) | > 100 µM (inactive)
CC1C2CC(C(S(=O)(=O)N3CCOCC3)/C2=N\O)C1(C)C (stereo unspecified) | > 100 µM (inactive) | > 100 µM | > 100 µM (inactive) | > 100 µM (inactive) | > 100 µM (inactive) | > 100 µM (inactive) | > 100 µM (inactive) | > 100 µM (inactive) | > 100 µM (inactive) | > 100 µM (inactive) | – | > 100 µM (inactive) | > 100 µM (inactive) | > 100 µM (inactive) | > 100 µM (inactive) | > 100 µM (inactive) | > 100 µM (inactive) | > 100 µM (inactive) | > 100 µM (inactive) | > 100 µM (inactive)
CO/N=C(/C)c1cccc(Nc2nc3ccc(Cl)cc3c3[nH]c4ccccc4c23)c1 | 12.8 µM (inactive) | 9.73 µM | 13.2 µM (inactive) | 11.7 µM (inactive) | 16.7 µM (inactive) | 11.8 µM (inactive) | – | 11.5 µM (inactive) | 4.62 µM (inactive) | 13 µM (inactive) | 13.2 µM (inactive) | 11 µM (inactive) | 2.47 µM (inactive) | – | 6.59 µM (inactive) | 9.46 µM (inactive) | 23 µM (inactive) | 5.87 µM (inactive) | 15.6 µM (inactive) | 12.5 µM (inactive)
C=CCNC(=O)CN(CC(=O)O)C1CCCCC1N(CC(=O)O)CC(=O)O (stereo unspecified) | > 100 µM (inactive) | > 100 µM | > 100 µM (inactive) | > 100 µM (inactive) | > 100 µM (inactive) | > 100 µM (inactive) | > 100 µM (inactive) | > 100 µM (inactive) | > 100 µM (inactive) | > 100 µM (inactive) | – | > 100 µM (inactive) | > 100 µM (inactive) | > 100 µM (inactive) | > 100 µM (inactive) | > 100 µM (inactive) | > 100 µM (inactive) | > 100 µM (inactive) | > 100 µM (inactive) | > 100 µM (inactive)
O=c1[nH]c(NCc2ccncc2)nc2[nH]cnc12 | > 100 µM (inactive) | > 100 µM | – | > 100 µM (inactive) | > 100 µM (inactive) | > 100 µM (inactive) | > 100 µM (inactive) | > 100 µM (inactive) | > 100 µM (inactive) | > 100 µM (inactive) | > 100 µM (inactive) | > 100 µM (inactive) | > 100 µM (inactive) | > 100 µM (inactive) | > 100 µM (inactive) | > 100 µM (inactive) | > 100 µM (inactive) | > 100 µM (inactive) | – | > 100 µM (inactive)
COC(=O)[C@@H]1CN(C(=O)c2ccccc2)C(=O)N1 | > 100 µM (inactive) | – | > 100 µM (inactive) | > 100 µM (inactive) | > 100 µM (inactive) | > 100 µM (inactive) | > 100 µM (inactive) | > 100 µM (inactive) | > 100 µM (inactive) | > 100 µM (inactive) | – | > 100 µM (inactive) | > 100 µM (inactive) | > 100 µM (inactive) | > 100 µM (inactive) | 69.7 µM (inactive) | > 100 µM (inactive) | – | > 100 µM (inactive) | > 100 µM (inactive)
NC(=O)C1=C(c2ccccc2)c2ccccc2C1=O | 18.6 µM (inactive) | 12.3 µM | 3.57 µM (inactive) | 14.9 µM (inactive) | 24.8 µM (inactive) | 19.5 µM (inactive) | – | 18.1 µM (inactive) | 11.8 µM (inactive) | 17.8 µM (inactive) | 19.9 µM (inactive) | 18.5 µM (inactive) | 19.1 µM (inactive) | 18.1 µM (inactive) | 17.4 µM (inactive) | 18.8 µM (inactive) | 2.75 µM (inactive) | 22 µM (inactive) | – | 18.2 µM (inactive)
Nc1ncc(Cc2ccc3c(c2)OCO3)c(N)n1 | > 100 µM (inactive) | > 100 µM | 73.5 µM (inactive) | > 100 µM (inactive) | > 100 µM (inactive) | > 100 µM (inactive) | > 100 µM (inactive) | > 100 µM (inactive) | > 100 µM (inactive) | > 100 µM (inactive) | – | > 100 µM (inactive) | 91.4 µM (inactive) | > 100 µM (inactive) | > 100 µM (inactive) | > 100 µM (inactive) | > 100 µM (inactive) | > 100 µM (inactive) | > 100 µM (inactive) | > 100 µM (inactive)
